Source: patent publication US9238658B2, “Substituted piperidinyl-carboxamide derivatives useful as SCD 1 inhibitors” (Janssen Pharmaceutica NV, priority 2011, dated 2016)

Key:
SCD1 [1] = target: SCD1 (Rattus norvegicus (Rat), UniProt P07308); experiment: SCD1 enzymatic assay in rat liver microsomes (RLM); type: biochemical; settings: for inhibition at 1 µM: 1 μM test compound
Procedure: Step 1: Preparation of Rat Liver Microsome (RLM)
Sprague Dawley rats from Charles River (200-225 g) underwent 2-cycle of fast-re-feeding (24-hour fast followed by 24-hour feeding with fat-free high carbohydrate diet, Research Diet, D00042802). The livers were removed and homogenized 1:4 (w/v) with pre-chilled, homogenizing buffer (10 mM Tris-HCl, 0.25 M sucrose, 1 mM EDTA, pH 7.4, supplemented with protease inhibitor cocktail). The homogenate was spun at 12,000×g for 15 min at 4° C. The supernatant was then re-centrifuged at 100,000×g for 60 min at 4° C. The pellet was re-suspended in 2 ml pre-chilled […] potassium phosphate buffer, pH 7.2, 10 mM EDTA at a concentration of 20 mg/ml. The resulting rat liver microsome (RLM) preparation was stored at […].
Step 2: SCD1 Enzymatic Assay in RLM:
The SCD1 enzymatic assay was done in a volume of 50 μL using 10 μg of RLM (prepared as described above) in a 96-well polypropylene plate (enzyme reaction buffer contains 0.1 M K-Phosphate Buffer, 10 mM ATP, 6 mM MgCl2, 1 mM CoA, 1 mM β-NADH, 1.6 mM L-glutathione, 20 μM Stearoyl-CoA). Stearoyl-[9,10-^3H]—CoA (ARC-0390, 1 mCi/mL, 60 Ci/mmol,) was added at a final concentration of 2 μCi/mL. Test compound was then added to the reaction mixture at the selected concentration. After incubation at room temperature for 2 hours, 5 μL 1 N HCl was added to stop the reaction, followed by addition of 25 μL of 10% charcoal. The reaction mixture was then transferred to 96-well Multiscreen plate (Millipore, Cat# MSFCN6B50). [^3H2O] was collected into Opti-plate (PE, Cat #6005290) by centrifuge, at 1,000 rpm for 2 minutes. 150 μL Microscint 40 (PE, cat #6013641) was then added to each well and counted on Topcount for [^3H] counts per minute (cpm). The measured cpm values were fitted with Sigmoidal dose-response curve fit with Graphpad Prism.

SCD1 [2] = target: SCD1 (Homo sapiens (Human), UniProt O00767); experiment: SCD1 13C-palmitic acid assay in A431 cells; type: cell-based; settings: read-out: A431 cells 13C-PA IC50
Procedure: Human epithelial carcinoma A431 cells were seeded at 100,000 cells/well in complete growth medium (DMEM, Cellgro #10-013-CM, 4.5 g/L glucose, 10% FBS) in the presence of 0.05 mg/mL human insulin (Hannas Pharmaceutical Supply Co Inc, Humanlin 100 U/ml, 4 mg/ml) in 96-well tissue culture plate. […] The cells were then returned to the tissue culture incubator (37° C. and 5% CO2) for 4 hrs. At the end of incubation, the cells were washed three times with 200 μL/well Hanks buffer (HBSS) and then stored at −20° C. until extraction.
For fatty acid extraction, after thawing out the plates, 40 μL of 1N KOH (containing 5 μM of internal standard 7,7,8,8-D4 palmitate) was added to each well and cell plates were incubated at 37° C. for 30 minutes. […] Acetonitrile (100 μL) was then added to extract fatty acids, followed by centrifugation at 3000 rpm for 10 minutes. 75 μL of extract was then transferred to a new glass vial in a 96-well cluster plate. 5 μL was injected for LC/MS analysis for detection of ^13C-palmitic acid and ^13C-palmitoleic acid. Formation of product ^13C-palmitoleic acid was determined as an index of SCD1 activity.
LC/MS analysis was performed as following. An Agilent 1100 Liquid Chromatographic System (Palo Alto, Calif.) consisting of a binary pump, a degasser and an autosampler was used. Separation of free fatty acids was performed on a Zorbax SB—C8 column (2.1×50 mm, particle size=3.5 μm). An isocratic elution was carried out with 10 mM triethylamine acetate in water:acetonitrile (3:7) at a flow rate of 0.3 mL/min. The column temperature was set at 30° C. and the sample injection volume was 5 μL. The LC run cycle was 4 min, A Micromass triple-quadrupole Quattro Micro mass […] (Waters, Beverly, Mass.) was interfaced with the LC system through a Z-spray electrospray ion source and was operated in the negative ion mode. Nitrogen was used as nebulizing gas, desolvation gas and cone curtain gas and argon was chosen as collision gas. The triple quadrupole MS source parameters were set as follows: capillary voltage, 3200V; cone voltage, 25V; extractor 2V, source temperature, 120° C.; desolvation temperature, 300° C.; cone gas flow, 50 L/h; and desolvation gas flow, 700 L/h. […] MassLynx software version 4.0 was used for system control and data processing. The signal of U—^13C-palmitoleic acid was normalized to an internal standard.

SCD1 (Rattus norvegicus (Rat), UniProt P07308), sequence (P07308 whole entry): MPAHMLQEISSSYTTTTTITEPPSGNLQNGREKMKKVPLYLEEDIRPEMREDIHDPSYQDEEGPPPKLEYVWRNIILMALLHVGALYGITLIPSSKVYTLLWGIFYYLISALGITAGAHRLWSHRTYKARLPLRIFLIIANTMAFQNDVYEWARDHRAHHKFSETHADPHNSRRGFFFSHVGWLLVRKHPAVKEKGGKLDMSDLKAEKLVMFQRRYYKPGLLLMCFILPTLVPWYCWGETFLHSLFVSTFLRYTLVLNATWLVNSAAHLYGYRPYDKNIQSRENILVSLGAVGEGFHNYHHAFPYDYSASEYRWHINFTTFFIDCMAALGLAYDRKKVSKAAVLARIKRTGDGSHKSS
SCD1 (Homo sapiens (Human), UniProt O00767), sequence (O00767 whole entry): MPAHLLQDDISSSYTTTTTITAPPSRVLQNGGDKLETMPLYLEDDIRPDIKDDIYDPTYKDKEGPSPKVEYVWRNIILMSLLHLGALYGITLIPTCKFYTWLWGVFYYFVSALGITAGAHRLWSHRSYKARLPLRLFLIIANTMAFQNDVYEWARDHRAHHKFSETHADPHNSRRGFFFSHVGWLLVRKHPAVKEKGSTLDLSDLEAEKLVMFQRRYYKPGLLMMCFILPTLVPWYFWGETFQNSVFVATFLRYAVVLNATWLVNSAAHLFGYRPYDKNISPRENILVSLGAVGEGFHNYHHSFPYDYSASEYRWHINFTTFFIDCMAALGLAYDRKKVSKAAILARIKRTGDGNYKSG

Compound	IC50 (SCD1 [1]) [nM]	inhibition at 1 µM (SCD1 [1]) [%]	IC50 (SCD1 [2]) [nM]
Cc1cnc(NC(=O)N2CCC(c3noc4ccc(F)cc34)CC2)s1 [Compound 14, 4-(5-fluorobenzo[d]isoxazol-3-yl)-N-(5-methylthiazol-2-yl)piperidine-1-carboxamide]	303	86	169
NC(=O)c1cccc(NC(=O)N2CCC(c3noc4ccc(F)cc34)CC2)c1 [Compound 17, N-(3-carbamoylphenyl)-4-(5-fluorobenzo[d]isoxazol-3-yl)piperidine-1-carboxamide]	208	84	274
Cc1csc(NC(=O)N2CCC(N3CCc4ccc(F)cc43)CC2)n1 [Compound 20, 4-(6-fluoroindolin-1-yl)-N-(4-methylthiazol-2-yl)piperidine-1-carboxamide]	26	98	21
CCOC(=O)c1cccc(NC(=O)N2CCC(N3CCc4ccc(F)cc43)CC2)c1 [Compound 41, ethyl 3-(4-(6-fluoroindolin-1-yl)piperidine-1-carboxamido)benzoate]	534	53	–
CCOC(=O)c1ccc(NC(=O)N2CCC(N3CCc4ccc(F)cc43)CC2)cc1 [Compound 42, ethyl 4-(4-(6-fluoroindolin-1-yl)piperidine-1-carboxamido)benzoate]	–	21	–
O=C(Nc1ccc(CO)cc1)N1CCC(N2CCc3ccc(F)cc32)CC1 [Compound 44, 4-(6-fluoroindolin-1-yl)-N-(4-(hydroxymethyl)phenyl)piperidine-1-carboxamide]	–	31	–
O=C(Nc1ccc2c(c1)CNCC2)N1CCC(N2CCc3ccc(F)cc32)CC1 [Compound 46, 4-(6-fluoroindolin-1-yl)-N-(1,2,3,4-tetrahydroisoquinolin-7-yl)piperidine-1-carboxamide]	–	27	–
NC(=O)c1cc(NC(=O)N2CCC(N3CCc4ccc(F)cc43)CC2)ccc1CO [Compound 48, N-(3-carbamoyl-4-(hydroxymethyl)phenyl)-4-(6-fluoroindolin-1-yl)piperidine-1-carboxamide]	909	55	–
CCOC(=O)Cc1csc(NC(=O)N2CCC(c3noc4ccc(F)cc34)CC2)n1 [Compound 51, ethyl 2-(2-(4-(5-fluorobenzo[d]isoxazol-3-yl)piperidine-1-carboxamido)thiazol-4-yl)acetate]	579	68	–
COC(=O)Cc1cnc(NC(=O)N2CCC(c3noc4ccc(F)cc34)CC2)s1 [Compound 52, methyl 2-(2-(4-(5-fluorobenzo[d]isoxazol-3-yl)piperidine-1-carboxamido)thiazol-5-yl)acetate]	–	15	–
CCOC(=O)CN1CCc2nc(NC(=O)N3CCC(N4CCc5ccc(F)cc54)CC3)sc2C1 [Compound 56, ethyl 2-(2-(4-(6-fluoroindolin-1-yl)piperidine-1-carboxamido)-6,7-dihydrothiazolo[5,4-c]pyridin-5(4H)-yl)acetate]	–	42	–
CNC(=O)c1cccc(NC(=O)N2CCC(c3c[nH]c4ccccc34)CC2)c1 [Compound 64, 4-(1H-indol-3-yl)-N-(3-(methylcarbamoyl)phenyl)piperidine-1-carboxamide]	–	15	–
Cc1csc(NC(=O)N2CCC(c3c[nH]c4ccccc34)CC2)n1 [Compound 65, 4-(1H-indol-3-yl)-N-(4-methylthiazol-2-yl)piperidine-1-carboxamide]	–	2	–

Now from value to molecule:

IC50 (SCD1 [1]) [nM]	inhibition at 1 µM (SCD1 [1]) [%]	IC50 (SCD1 [2]) [nM]	Compound
22	101	49	NC(=O)c1cnc(NC(=O)N2CCC(N3CCc4ccc(F)cc43)CC2)s1 [Compound 15, 2-(4-(6-fluoroindolin-1-yl)piperidine-1-carboxamido)thiazole-5-carboxamide]
20	96	93	NC(=O)c1cccc(NC(=O)N2CCC(N3CCc4ccc(F)cc43)CC2)c1 [Compound 16, N-(3-carbamoylphenyl)-4-(6-fluoroindolin-1-yl)piperidine-1-carboxamide]
363	62	221	COC(=O)c1cnc(NC(=O)N2CCC(N3CCc4ccc(F)cc43)CC2)s1 [Compound 18, methyl 2-(4-(6-fluoroindolin-1-yl)piperidine-1-carboxamido)thiazole-5-carboxylate]
93	94	206	CNC(=O)c1cnc(NC(=O)N2CCC(N3CCc4ccc(F)cc43)CC2)s1 [Compound 19, 2-(4-(6-fluoroindolin-1-yl)piperidine-1-carboxamido)-N-methylthiazole-5-carboxamide]
82	83	108	Cc1cnc(NC(=O)N2CCC(N3CCc4ccc(F)cc43)CC2)s1 [Compound 21, 4-(6-fluoroindolin-1-yl)-N-(5-methylthiazol-2-yl)piperidine-1-carboxamide]
88	97	154	O=C(Nc1ncc(CO)s1)N1CCC(N2CCc3ccc(F)cc32)CC1 [Compound 24, 4-(6-fluoroindolin-1-yl)-N-(5-(hydroxymethyl)thiazol-2-yl)piperidine-1-carboxamide]
52	94	42	O=C(Nc1nc(CO)cs1)N1CCC(N2CCc3ccc(F)cc32)CC1 [Compound 25, 4-(6-fluoroindolin-1-yl)-N-(4-(hydroxymethyl)thiazol-2-yl)piperidine-1-carboxamide]
290	80	> 1000	CCOC(=O)Cc1csc(NC(=O)N2CCC(N3CCc4ccc(F)cc43)CC2)n1 [Compound 27, ethyl 2-(2-(4-(6-fluoroindolin-1-yl)piperidine-1-carboxamido)thiazol-4-yl)acetate]
20	94	18	O=C(Nc1nc(CCO)cs1)N1CCC(N2CCc3ccc(F)cc32)CC1 [Compound 29, 4-(6-fluoroindolin-1-yl)-N-(4-(2-hydroxyethyl)thiazol-2-yl)piperidine-1-carboxamide]
–	48	–	COC(=O)Cc1cnc(NC(=O)N2CCC(N3CCc4ccc(F)cc43)CC2)s1 [Compound 49, methyl 2-(2-(4-(6-fluoroindolin-1-yl)piperidine-1-carboxamido)thiazol-5-yl)acetate]
–	34	–	CCN1CCc2nc(NC(=O)N3CCC(N4CCc5ccc(F)cc54)CC3)sc2C1 [Compound 53, N-(5-ethyl-4,5,6,7-tetrahydrothiazolo[5,4-c]pyridin-2-yl)-4-(6-fluoroindolin-1-yl)piperidine-1-carboxamide]
–	38	–	NC(=O)CN1CCc2nc(NC(=O)N3CCC(N4CCc5ccc(F)cc54)CC3)sc2C1 [Compound 57, N-(5-(2-amino-2-oxoethyl)-4,5,6,7-tetrahydrothiazolo[5,4-c]pyridin-2-yl)-4-(6-fluoroindolin-1-yl)piperidine-1-carboxamide]
